Eleven compounds from patent US11851421B2, “Near-infrared cyanine dyes and conjugates thereof” (BRACCO IMAGING S.P.A., priority 2020, dated 2023) can be followed below.

Series [1] addresses T1, human serum albumin (HSA) (Homo sapiens, UniProt P02768).
T1 construct: purchased Sigma Aldrich A9511
The series can be described thus: Binding affinity to human serum albumin (absorbance peak shift or ultrafiltration method). On the procedure: An analysis of the binding affinity of the compounds of the invention to human albumin was carried out and the results compared with ICG and […] as a reference. Binding affinity to human serum albumin (HSA; Sigma Aldrich, A9511) was measured using two methods, according to the level of binding affinity of the compounds. The first method, optimal for compounds which strongly interact with HSA, is based on the analysis of the absorbance spectrum peak shift after the incubation of the dye in solutions containing HSA. […] The measure was performed at the maximum absorbance wavelength of the shifted peak. The second method, optimal for compound with low affinity for HSA, is based on measuring the variation of the absorbance of solutions containing the dye and various concentrations of HSA after ultrafiltration. […] In the first method, ΔA/b corresponds to the absorbance measured for each sample, whereas in the second method ΔA/b is obtained subtracting the absorbance of the control sample (dye without HSA) to the absorbance of each other sample.

Series [2] in a line: Optical properties: excitation/emission maxima and absolute fluorescence quantum yield. Format: physicochemical. On the procedure:
A dual-beam UV-VIS spectrophotometer (Lambda 40, Perkin Elmer) was used to determine the absorbance (Abs) of the compounds of the invention. Emission/excitation (Em/Ex) spectra and absolute fluorescence quantum yield (ϕ) measurements were carried out on a spectrofluorometer (FluoroLog-3 1IHR-320, Horiba Jobin Yvon) equipped with an F-3018 integrating sphere accessory. The measurements were performed using an excitation wavelength at maximum absorbance of different dyes, and the sample was excited with a 450 W Xenon Light Source. Detection was performed by photomultiplier tubes (PMT-NIR) cooled detector or by TBX-04 detector. Dye solutions were carefully prepared to have an absorbance lower than 0.1 (optical densities) to minimize re-absorption phenomena.
The compounds of the invention have been characterized in terms of their optical properties in vitro in aqueous medium (i.e., water/PBS pH 7.4) and in a clinical chemistry control serum (Seronorm, Sero SA), mimicking the chemical composition and optical properties of human serum. All dye or dye-conjugate solutions were freshly prepared. ICG and S0456 were used as commercial references.
In particular, the excitation and emission maxima and the absolute fluorescence quantum yield (Φ) of representative compounds of formula (I) and conjugates of formula (II) are shown in Table II.

The mark [3] stands for this setting: Seronorm (clinical chemistry control serum).

T1 sequence (P02768 25-609): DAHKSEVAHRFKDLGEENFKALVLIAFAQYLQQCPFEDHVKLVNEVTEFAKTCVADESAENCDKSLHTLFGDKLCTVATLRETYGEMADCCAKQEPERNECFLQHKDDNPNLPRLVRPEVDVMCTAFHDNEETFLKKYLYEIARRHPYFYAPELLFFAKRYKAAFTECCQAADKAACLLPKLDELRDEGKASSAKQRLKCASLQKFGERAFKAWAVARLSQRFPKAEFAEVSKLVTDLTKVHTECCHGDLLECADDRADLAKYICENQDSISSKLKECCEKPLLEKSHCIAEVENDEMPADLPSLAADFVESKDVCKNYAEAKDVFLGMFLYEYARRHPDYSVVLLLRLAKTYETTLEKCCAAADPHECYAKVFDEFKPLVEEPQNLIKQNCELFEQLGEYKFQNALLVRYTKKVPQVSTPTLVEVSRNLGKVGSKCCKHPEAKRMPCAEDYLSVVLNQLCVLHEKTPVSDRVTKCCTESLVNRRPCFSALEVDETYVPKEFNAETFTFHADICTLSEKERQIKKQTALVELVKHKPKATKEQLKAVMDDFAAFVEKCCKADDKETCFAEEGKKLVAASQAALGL

`CC1(C)C(/C=C/C2=C(Oc3ccccc3)C(=C/C=C3/N(CCCCS(=O)(=O)O)c4ccc(C(=O)NC(CO)CO)cc4C3(C)C)/CCC2)=[N+](CCCCS(=O)(=O)[O-])c2ccc(C(=O)NC(CO)CO)cc21` [Compound 19]: the Kd in series [1] is 35.3 µM. In addition, in series [2] (PBS pH 7.4), the “Max Em (emission maximum)” value is given as 805 nm, the “Max Ex (excitation maximum)” value is reported as 783 nm and the “Φ (absolute fluorescence quantum yield)” value is reported as 6.5%. Moreover, the “Φ (absolute fluorescence quantum yield)” value in series [2] (setting [3]) is 10.9%.
As for `CC1(C)C(/C=C/C=C/C=C/C=C2\N(CCCCS(=O)(=O)O)c3ccc4ccccc4c3C2(C)C)=[N+](CCCCS(=O)(=O)[O-])c2ccc3ccccc3c21` [ICG, Indocyanine green, reference compound], in series [2] (PBS pH 7.4), the “Max Em (emission maximum)” value was 810 nm, the “Max Ex (excitation maximum)” value turned out to be 780 nm and the “Φ (absolute fluorescence quantum yield)” value came to 1.5%. Also, in series [2] (setting [3]), the “Φ (absolute fluorescence quantum yield)” value was 7.8%.
On to `CC1(C)C(/C=C/C2=C(Oc3ccc(S(=O)(=O)O)cc3)C(=C/C=C3/N(CCCCCC(=O)O)c4ccc(C(=O)NCC(O)C(O)C(O)C(O)CO)cc4C3(C)C)/CCC2)=[N+](CCCCS(=O)(=O)[O-])c2ccc(C(=O)NCC(O)C(O)C(O)C(O)CO)cc21` (stereo not shown) [Compound 15], for which the Kd in series [1] is 11 µM.
Take `CC1(C)C(/C=C/C2=C(Oc3ccccc3)C(=C/C=C3/N(CCCCS(=O)(=O)O)c4ccc(C(=O)NC5C(O)C(O)C(O)C(O)C5O)cc4C3(C)C)/CCC2)=[N+](CCCCS(=O)(=O)[O-])c2ccc(C(=O)NC3C(O)C(O)C(O)C(O)C3O)cc21` (stereo not shown) [Compound 20]: the Kd in series [1] was 72.5 µM. In series [2] (PBS pH 7.4), the “Max Em (emission maximum)” value is given as 801 nm, the “Max Ex (excitation maximum)” value worked out at 780 nm and the “Φ (absolute fluorescence quantum yield)” value came to 6.3%. Besides, the “Φ (absolute fluorescence quantum yield)” value in series [2] (setting [3]) turned out to be 7.7%.
For the compound `CC1(C)C(/C=C/C2=C(c3ccccc3)C(=C/C=C3/N(CCCCC(=O)O)c4ccc(C(=O)NCC(O)C(O)C(O)C(O)CO)cc4C3(C)C)/CCC2)=[N+](CCCCS(=O)(=O)[O-])c2ccc(C(=O)NCC(O)C(O)C(O)C(O)CO)cc21` (stereo not shown) [Compound 22], in series [1], the Kd was 120 µM. In series [2] (PBS pH 7.4), the “Max Em (emission maximum)” value turned out to be 803 nm, the “Max Ex (excitation maximum)” value was 782 nm and the “Φ (absolute fluorescence quantum yield)” value was 6.1%. In series [2] (setting [3]), the “Φ (absolute fluorescence quantum yield)” value amounted to 9.8%.
Consider `CC1(C)C(/C=C/C2=C(c3ccccc3)C(=C/C=C3/N(CCCCS(=O)(=O)O)c4ccc(C(=O)NCC(O)C(O)C(O)C(O)CO)cc4C3(C)C)/CCC2)=[N+](CCCCS(=O)(=O)[O-])c2ccc(C(=O)NCC(O)C(O)C(O)C(O)CO)cc21` (stereo not shown) [Compound 17], for which the Kd in series [1] is 81.6 µM. Moreover, in series [2] (PBS pH 7.4), the “Max Em (emission maximum)” value came out at 788 nm, the “Max Ex (excitation maximum)” value came to 768 nm and the “Φ (absolute fluorescence quantum yield)” value is reported as 5.5%. In series [2] (setting [3]), the “Φ (absolute fluorescence quantum yield)” value is given as 11.8%.
With `CC1(C)C(/C=C/C2=C(c3ccccc3)C(=C/C=C3/N(CCCCS(=O)(=O)O)c4ccc(C(=O)NC(CO)(CO)CO)cc4C3(C)C)/CCC2)=[N+](CCCCS(=O)(=O)[O-])c2ccc(C(=O)NC(CO)(CO)CO)cc21` [Compound 21], in series [1], the Kd is 30.9 µM. In addition, in series [2] (PBS pH 7.4), the “Max Em (emission maximum)” value was determined as 790 nm, the “Max Ex (excitation maximum)” value came out at 769 nm and the “Φ (absolute fluorescence quantum yield)” value was found to be 5.6%. Besides, the “Φ (absolute fluorescence quantum yield)” value in series [2] (setting [3]) came to 12.8%.
In the case of `CC1(C)C(/C=C/C2=C(Cl)C(=C/C=C3/N(CCCCS(=O)(=O)[O-])c4ccc(S(=O)(=O)[O-])cc4C3(C)C)/CCC2)=[N+](CCCCS(=O)(=O)[O-])c2ccc(S(=O)(=O)[O-])cc21.[Na+].[Na+].[Na+]` [Compound S0456, reference compound], the “HSA affinity (KA)” value in series [1] is 350,000 M^−1. In series [2] (PBS pH 7.4), the “Max Em (emission maximum)” value stood at 803 nm, the “Max Ex (excitation maximum)” value is recorded as 782 nm and the “Φ (absolute fluorescence quantum yield)” value is listed as 3.9%. The “Φ (absolute fluorescence quantum yield)” value in series [2] (setting [3]) came to 7.7%.
In the case of `CC1(C)C(/C=C/C2=C(Oc3ccccc3)C(=C/C=C3/N(CCCCS(=O)(=O)O)c4ccc(C(=O)NCC(O)CO)cc4C3(C)C)/CCC2)=[N+](CCCCS(=O)(=O)[O-])c2ccc(C(=O)NCC(O)CO)cc21` (stereo not shown) [Compound 18], in series [1], the dissociation constant (Kd) was 68.5 µM. For the same compound, in series [2] (PBS pH 7.4), the “Max Em (emission maximum)” value is 804 nm, the “Max Ex (excitation maximum)” value worked out at 781 nm and the “Φ (absolute fluorescence quantum yield)” value is given as 6.2%. In addition, the “Φ (absolute fluorescence quantum yield)” value in series [2] (setting [3]) came out at 10.5%.
For `CC1(C)C(/C=C/C2=C(c3ccc(CCC(=O)O)cc3)C(=C/C=C3/N(CCCCS(=O)(=O)O)c4ccc(C(=O)NCC(O)C(O)C(O)C(O)CO)cc4C3(C)C)/CCC2)=[N+](CCCCS(=O)(=O)[O-])c2ccc(C(=O)NCC(O)C(O)C(O)C(O)CO)cc21` (stereo not shown) [Compound 11], in that order: 154 µM, 786 nm, 764 nm, 6.3% and 11.5%.
For `CC1(C)C(/C=C/C2=C(c3ccccc3)C(=C/C=C3\N(CCCCCC(=O)NCCCCC4NC(=O)[C@@H](Cc5ccccc5)NC(=O)[C@H](CC(=O)O)NC(=O)CNC(=O)[C@H](CCCNC(=N)N)NC4=O)c4ccc(C(=O)NCC(O)C(O)C(O)C(O)CO)cc4C3(C)C)/CCC2)=[N+](CCCCS(=O)(=O)[O-])c2ccc(C(=O)NCC(O)C(O)C(O)C(O)CO)cc21` (stereo partly shown) [Compound 3], in series [2] (PBS pH 7.4), the “Max Em (emission maximum)” value was 787 nm, the “Max Ex (excitation maximum)” value is 771 nm and the “Φ (absolute fluorescence quantum yield)” value worked out at 6.4%. In addition, in series [2] (setting [3]), the “Φ (absolute fluorescence quantum yield)” value is listed as 8.1%.
